Data: PMC2376334, “Penetration of capecitabine and its metabolites into malignant and healthy tissues of patients with advanced breast cancer” (British Journal of Cancer, 2003)

Assays:
[1] = Plasma pharmacokinetics of free drug after oral capecitabine in breast cancer patients; type: in vivo, human; conditions: for Cmax / Tmax / half-life / AUC(0-t) / concentration at 1 day: human, plasma; for AUC(0-t): read-out: AUC0−5 h; for concentration at 1 day: one patient, day 1, slow absorption kinetics, read-out: plasma concentrations; for plasma concentrations: same patient, end of the first cycle (days 12–14)
Description: In parallel, a plastic cannula was inserted into an antecubital vein to monitor blood concentrations of the study drug at 30-min intervals. A total of 10 capecitabine-naive patients were studied after the first morning dose of day 1. Three of them were monitored once again between days 12 and 14 of cycle 1.
(§1) After thawing, 100 μl plasma were centrifuged through Centrisart-C4 filter units with a nominal molecular weight cutoff=10 000 (Sartorius, Germany) for 30 min at 37°C to separate free drug from protein-bound drug. […] Capecitabine, DFCR, DFUR (supplied by Roche, Basel, Switzerland), and FU (Sigma, St Louis, MO, USA) were evaluated in 200 mM tetraborate buffer (pH=9.5) monitoring the absorbance at three different wavelengths (capecitabine: 297 nm, DFCR: 282 nm, DFUR and FU: 268 nm). […] The intra-assay coefficient of variation for this method ranged from 3.4 to 6.9% with an interassay coefficient of variation ranging from 6.7 to 10.4%.

[2] = Microdialysis pharmacokinetics in the interstitium of a cutaneous metastasis (tumour)
Description: (§2) Patients were in a supine position throughout the study period. Commercially available microdialysis probes (CMA 10®, CMA, Stockholm, Sweden) were inserted into a suitable cutaneous metastasis. A second microdialysis probe was inserted horizontally into the subcutaneous connective tissue of one thigh. The surface of the disinfected skin was punctured according to a previously described procedure ([Müller et al, 1995]). The position of the probes in the metastasis was established by ultrasound scanning. Subsequently, the microdialysis system was connected and perfused with Ringer's solution at a flow rate of 1.5 μl min^−1 by a microinfusion-pump (Precidor®; Infors-AG, Basel, Switzerland). After a 30 min baseline sampling period, probe calibration for capecitabine and FU was performed for a period of 30 min according to a retrodialysis procedure ([Stahle et al, 1991]). After a wash-out period of 30 min, the study drug was administered in the scheduled dose. Sampling was continued at 30-min intervals up to 300 min.
(§3) Sample collection and analysis of microdialysates and blood samples by capillary electrophoresis were performed according to a validated method with minor modifications ([Mader et al, 1998]). After thawing, 100 μl plasma were centrifuged through Centrisart-C4 filter units with a nominal molecular weight cutoff=10 000 (Sartorius, Germany) for 30 min at 37°C to separate free drug from protein-bound drug. […] Capecitabine, DFCR, DFUR (supplied by Roche, Basel, Switzerland), and FU (Sigma, St Louis, MO, USA) were evaluated in 200 mM tetraborate buffer (pH=9.5) monitoring the absorbance at three different wavelengths (capecitabine: 297 nm, DFCR: 282 nm, DFUR and FU: 268 nm).
(§4) To obtain absolute interstitial concentrations from dialysate concentrations, microdialysis probes were calibrated for in vivo recovery rates according to the retrodialysis method ([Müller et al, 1995],[1997]). The principle of this method relies on the assumption that the diffusion process is quantitatively equal in both directions across the semipermeable membrane. Therefore, the study drug is added to the perfusate and the disappearance rate through the membrane is taken as the in vivo recovery. The in vivo recovery value is calculated as: […]
(§5) Absolute interstitial fluid concentrations of free drug were calculated from dialysate concentrations by the following equation: […]
(§6) The following pharmacokinetic parameters were determined: AUC calculated using the trapezoidal rule, maximum concentration (cmax), time to maximum concentration (tmax), and elimination half-life (t1/2). For statistical calculations, pharmacokinetic parameters derived from different compartments were compared using the paired Wilcoxon test.

[3] = Microdialysis pharmacokinetics in the interstitium of subcutaneous connective tissue; conditions: human; for AUC(0-t) / Cmax / Tmax / half-life: po, 1250 mg
Description: as §2, §3, §4, §5, §6

[4] = In vitro plasma protein binding (ultrafiltration); type: in vitro ADME
Description: as §1
The plasma protein binding of DFCR, DFUR, and FU was <4% up to 100 μg substance (ml plasma)^−1. In contrast, the plasma protein binding of capecitabine was determined to be 60% by in vitro binding experiments (data not shown).

[5] = after capecitabine, cited from earlier work
[6] = design: method as in Mackean et al, 1998; conditions: most slowly eliminating compound; ref Mackean et al, 1998; cited from earlier work
[7] = po, free drug, median, n=10, 1250 mg capecitabine m^−2 orally, day 1, read-out: cmax
[8] = po, median, n=10, 1250 mg capecitabine m^−2 orally
[9] = po, median, n=10, 1250 mg capecitabine m^−2 orally, read-out: tmax
[10] = median of single-patient ratios, n=10
[11] = oral, 1250 mg m^−2, Ratio of AUC0−5 h s.c. Tissue/plasma, median of single-patient ratios, n=10
[12] = up to 100 μg substance (ml plasma)^−1
[13] = tissue biopsies, colorectal tumours, ref Schüller et al, 2000

Row | Structure (SMILES) | Cmax [1, 7] | half-life [1, 8] | AUC(0-t) [1, 8] | Tmax [1, 9] | Kp ([2]; human, oral, 1250 mg m^−2) | Cmax ([2]; human, po, 1250 mg) | Tmax ([2]; human, po, 1250 mg) | half-life ([2]; human, po, 1250 mg) | Ratio of AUC0−5 h Tumour/s.c. tissue [2, 10] | Kp [3, 11] | AUC(0-t) [3] | Cmax [3] | Tmax [3] | half-life [3] | fraction unbound [4, 12] | concentration at 1 day ([1]; oral, 1250 mg m^−2) | plasma concentrations [1] | further results
1 | CCCCCOC(=O)Nc1nc(=O)n([C@@H]2O[C@H](C)[C@@H](O)[C@H]2O)cc1F [Capecitabine] | 2340 ng/mL | 0.5 h | 2360 ng·h/mL | 1.75 h | 1.76 | 2660 ng/mL | 2.5 h | 0.5 h | 1.11 | 1.31 | 3160 ng·h/mL | 2700 ng/mL | 2.25 h | 0.59 h |  |  |  | Cmax ([1]; oral, 1250 mg m^−2, capecitabine-naive patients, range between patients, read-out: range of cmax): 640 to 15400 ng/mL; Tmax ([1]; oral, 1250 mg m^−2, capecitabine-naive patients, range between patients, read-out: range of tmax): 1 to 3 h; Kp ([3]; oral, 1250 mg m^−2, ratio AUCconnective tissue/AUCplasma, subgroup of four patients): > 2; fraction unbound ([4]; plasma, in vitro binding experiments (data not shown)): 0.4
2 | O=c1[nH]cc(F)c(=O)[nH]1 [FU, 5-fluorouracil, reference compound] | 250 ng/mL |  | 290 ng·h/mL | 2.5 h | 0.66 | 260 ng/mL | 3 h |  | 0.66 | 1.53 | 360 ng·h/mL | 330 ng/mL | 2 h |  | > 0.96 |  |  | FU levels in plasma ([1]; rarely exceeding, oral capecitabine regimen): ≤ 0.5 µg/mL; detection in tumour interstitium ([2]; one patient, day 1): not observed; mean tumour/plasma ratio ([5]; patients with colorectal tumours, ref Schüller et al (2000)): 21; median ratio tumour/healthy tissue of FU concentration [5, 13]: 2.9; median tumour/plasma ratio of FU concentration [5, 13]: 16.6
3 | C[C@H]1O[C@@H](n2cc(F)c(=O)[nH]c2=O)[C@H](O)[C@@H]1O [DFUR, 5′-deoxy-5-fluorouridine] | 3650 ng/mL | 0.8 h | 6420 ng·h/mL | 2 h |  |  |  |  |  |  |  |  |  |  | > 0.96 | ≤ 4000 ng/mL | about 10 μg ml^−1 | Kp ([2]; human, in vivo): 0.53; Ratio of AUC0−5 h Tumour/s.c. tissue ([2]; human, in vivo): 1.20; AUC0−5 h ([2]; human, in vivo, po, 1250 mg): 3.35 μg ml^ 1 h; Kp ([3]; in vivo, Ratio of AUC0−5 h s.c. Tissue/plasma): 0.44; AUC(0-t) ([3]; in vivo): 2750 ng·h/mL
4 | C[C@H]1O[C@@H](n2cc(F)c(N)nc2=O)[C@H](O)[C@@H]1O [DFCR, 5′-deoxy-5-fluorocytidine] | 6530 ng/mL | 0.86 h | 11300 ng·h/mL | 1.75 h | 0.67 | 4220 ng/mL | 2.5 h | 0.87 h | 1.12 | 0.67 | 8400 ng·h/mL | 4370 ng/mL | 2.5 h | 0.76 h | > 0.96 | ≤ 4000 ng/mL | about 10 μg ml^−1 | plasma half-life [6]: 1.22 h
